System: CD45RO−CD62L+ naïve CD8+ T cells
Test: Activation of naïve CD8+ T cells in the presence of the GSK-3β inhibitor, phenotypic analysis
Type: cell-based, human
Procedure: Candidate human TSCM cells were generated by activating CD45RO^−CD62L^+ naïve CD8^+ T cells in the presence of the GSK-3β inhibitor TWS119. […] To determine whether the CD45RO^−CD62L^+ T cells generated in the presence of TWS119 were truly naïve cells or had acquired memory traits, phenotypic analysis was performed using established markers of T cell activation and differentiation (Appay et al., Cytometry A 73: 975-983 (2008)).

Nc1cccc(-c2cc3c(Oc4cccc(O)c4)ncnc3[nH]2)c1 [TWS119, 3-[[6-(3-aminophenyl)-7H-pyrrolo[2,3-d]pyrimidin-4-yl]oxy]phenol]
phenotype of T cells after culture (CD45RO/CD62L) (naïve CD8+ T cells activated in presence of TWS119, after 2 weeks): majority of T cells cultured with TWS119 retained a CD45RO^−CD62L^+ naïve-like phenotype
expression of CD95 and IL-2Rβ by TWS119-generated naïve-like T cells (phenotypic analysis, compared with TN and memory T cells): expressed levels of CD95 and IL-2Rβ similar to those observed in memory T cells

From patent publication US12516289B2, “Methods of producing T memory stem cell populations” (The United States of America, as represented by the …, priority 2012, dated 2026)
